Experimental data from patent US20240002441A1, “PEPTIDES AND USES THEREOF IN MODULATION OF AMYLOID-BETA PROTEIN DEGRADING PROTEASES” (priority 2020, published 2024).

Experiments:
[1] = tested on: Ang II-induced expression of IL-6 and Collagen III in EA.hy926 cells; experiment: Ang II-induced expression of IL-6 and Collagen III in EA.hy926 cells, western blotting (Example 9); assay type: cell-based
Procedure: EA.hy926 cells (passage 40) were seeded at a density of 1×10^6 cells/mL. After 24 hours, cells were incubated overnight in reduced serum media. Cells were then treated over 24 h as follows: • 1. Vehicle control • 2. Ang II (10 nM) • 3. […] Ang II (10 nM)+rhACE2 (0.05 ng/μL) • 5.
Following incubation, cells were lysed using lysis buffer (Thermo Fisher Scientific, Cat #89900) containing 1% protease inhibitor (Thermo Fisher Scientific, Cat #1861278). Cell lysate was centrifuged at 13,000 rpm for 10 min. Protein concentration in the supernatant was determined by NanoDrop (Thermo Fisher Scientific, Cat #ND-1000). Supernatants were stored at −30° C. until analysed.
Samples were diluted in SDS-PAGE reducing sample buffer (Bio-Rad Laboratories, Cat #1610747; California, USA) containing 1% β-mercaptoethanol (Bio-Rad Laboratories, Cat #221610710) to reach a final concentration of […]. Prior to loading, samples were heated at 95° C. for 5 min. Samples were loaded into the wells alongside the molecular weight marker (Life Technologies, Cat #LC5800; California, USA). Electrophoresis was conducted at 200 V for 40 min in 1× running buffer. Following protein separation by SDS-PAGE, proteins were blotted onto nitrocellulose membranes at 100 V for 1 h in 1× transfer buffer. The membranes were then blocked in 5% skim milk in 1× Tris-buffered saline (TBST) containing 0.05% Tween 20 (Thermo Fisher Scientific, Cat #28352) for 1 h at room temperature. The membranes were incubated with IL-6 (1:500; Thermo Fisher Scientific, Cat #700480) or collagen III (1:500; Invitrogen, Cat #PA5-27828) primary antibodies while rocking at 4° C. overnight. Membranes were then probed with secondary antibody conjugated with horseradish peroxidase (HRP) (1:6000) for 1 h at room temperature. The HRP-labelled proteins were detected using chemiluminescence SuperSignal™ ECL Western Blotting Substrate (Thermo Fisher Scientific, Cat #34577) at 1:1 ratio. Beta-actin was used as a loading control. Protein bands were analysed using ImageJ (version 1.51) and band density was normalised with the respective beta-actin.

NEP [2] = molecular target: T1, NEP (Homo sapiens, UniProt P08473); experiment: Cleavage of synthetic Aβ40 by NEP, LCMS (Example 7); assay type: biochemical; conditions: peptide 9 μM
T1 construct: purchased R & D systems 1182-ZNC-010
Procedure: Synthetic Aβ40 (0.10 μg/μL) was added to a reaction mixture containing NEP (0.05 ng/μL) pre-incubated with SEQ ID NO:2 or scrambled control (9 μM) for 1 h at 37° C. Synthetic Aβ42 (0.05 μg/μL) was added to a reaction mixture containing NEP (0.15 ng/μL) preincubated with either scrambled control or SEQ ID NO:2 (9 μM) for 1 h at 37° C. Samples containing enzyme alone had only NEP buffer (Table 2). The cleavage reaction was allowed to continue in a thermomixer at 37° C. Aliquots of equal volume were taken over 24 h. Aliquots were immediately acidified with 0.1% trifluoroacetic acid (TFA) to terminate enzyme activity and snap frozen in dry ice. Samples were stored at −80° C. until analysed by LCMS.
Samples were analysed by LC-MS/MS using a quadrupole TOF mass spectrometer (MicroTOFq, Bruker Daltonics, Bremen, Germany) coupled online with a 1200 series nano-HPLC (Agilent technologies, Santa Clara, CA, USA). Samples were injected onto a zorbax 300SB reversed phase trap column with 95% solvent A (0.1% formic acid) at a flow rate of 10 μL/minute. The peptides were eluted over a 10-min gradient to 70% solvent B (80% acetonitrile, 0.1% formic acid) and separated on a 15-cm, 75-μmID zorbax 300SB nanocolumn. The eluent was nebulised and ionised using the Bruker nano-ESI source with a capillary voltage of 4500 V, dry gas at 180° C., flow rate of 5 L/minute and nebuliser gas pressure at 300 mbar. The MS acquisition was in selected ion monitoring mode after selected ion extraction of the MS spectra. Prior to analysis, the qTOF mass spectrometer was calibrated using a 1:50 dilution tuning mix (Agilent technologies, Santa Clara, CA, USA). Data from MS run were processed in Skyline version 19.1.0.193 (Uni. Of Washington, WA, USA) to perform ion chromatogram extractions and peak integrations.

ECE1 [3] = molecular target: T2, ECE1 (Homo sapiens, UniProt P42892); experiment: QFS plate reader enzyme assay, peptide screen on ECE1 activity (Example 3); assay type: biochemical; conditions: peptide 10 ng/μL, ECE1 0.05 ng/μL, 1 h at 37° C.; compared to enzyme alone
T2 construct: purchased R & D systems 1784-ZN-010
T2 sequence (P42892 1-770): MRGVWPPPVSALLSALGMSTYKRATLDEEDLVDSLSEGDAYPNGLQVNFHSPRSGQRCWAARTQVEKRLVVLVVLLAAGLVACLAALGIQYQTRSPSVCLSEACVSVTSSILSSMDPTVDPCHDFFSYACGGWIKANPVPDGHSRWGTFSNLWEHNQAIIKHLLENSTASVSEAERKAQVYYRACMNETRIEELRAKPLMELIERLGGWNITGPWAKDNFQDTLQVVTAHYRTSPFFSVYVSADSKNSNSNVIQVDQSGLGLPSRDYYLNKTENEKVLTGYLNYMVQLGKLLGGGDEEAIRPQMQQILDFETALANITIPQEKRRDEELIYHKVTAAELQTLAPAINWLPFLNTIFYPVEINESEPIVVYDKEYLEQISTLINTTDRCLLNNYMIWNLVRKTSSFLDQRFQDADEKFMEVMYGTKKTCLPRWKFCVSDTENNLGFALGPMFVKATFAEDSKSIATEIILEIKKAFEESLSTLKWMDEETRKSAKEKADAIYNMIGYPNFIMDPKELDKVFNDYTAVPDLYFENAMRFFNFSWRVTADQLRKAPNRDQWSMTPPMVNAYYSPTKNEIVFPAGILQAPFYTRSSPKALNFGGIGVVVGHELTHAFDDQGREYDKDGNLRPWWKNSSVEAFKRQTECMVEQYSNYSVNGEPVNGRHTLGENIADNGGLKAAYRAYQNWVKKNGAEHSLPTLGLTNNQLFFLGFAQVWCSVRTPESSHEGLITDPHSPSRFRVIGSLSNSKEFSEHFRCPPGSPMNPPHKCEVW
Procedure: (§1) Plate reader-based enzyme assays were performed using a quenched fluorescent substrate (QFS) in a 96-well format using a SpectraMAX M4 Microplate reader (Molecular Devices). The increase in fluorescence following addition of QFS (40 μM) was taken as evidence of enzyme activity. Fluorescence was monitored over 2 h at 37° C. using κEx=320 nm and λEm=405 nm. Assays were conducted in black 96-well plates. Specific enzyme activity was expressed as a rate of substrate cleavage calculated using a standard curve of 7-methoxy-coumarin-4-acetic acid.
(§2) In all plate reader-based enzyme assays using QFS, the reaction rate (μmol of substrate cleaved/min) was calculated using linear regression analysis (GraphPad Prism software version 8.01). The reaction rates calculated were used to generate the enzyme kinetic parameters Vmax and Km through non-linear regression analysis (GraphPad Prism software, version 8.01; Michaelis-Menten equation). Where indicated, enzyme activity in the presence of peptide was expressed as a % of the enzyme alone. Data were expressed as mean±SEM and statistical significance was determined using t-tests or one-way ANOVAs followed by Tukey's post-hoc test. P<0.05 was considered as statistically significant. In all assays conducted using 96-well plates, the reaction mixtures in each well were considered an independent experiment.
(§3) SEQ ID NOS: 1, 5 and 9-15 were screened for their effects on NEP and ECE1 using a high-throughput QFS assay using the method in Example 2 and the following procedure. NEP or ECE1 (0.05 ng/μL) was incubated with each peptide (10 ng/μL) for 1 h at 37° C.

EA.hy926 cells = experiment: Peptide stability study in EA.hy926 endothelial cells, LCMS (Example 4); assay type: in vitro ADME; conditions: peptide 9 μM, Opti-MEM
Procedure: (§4) SEQ ID NO:2 was prepared as a C-terminal amidated analogue of SEQ ID NO:1. The stability of SEQ ID NO:1 and SEQ ID NO:2 was assessed in HEK293 and EA.hy926 cells grown in culture and their break down was monitored by LCMS over 60 min using the following procedure.
(§5) HEK293 (passage 24) or Ea.hy926 (passage 37) were seeded into tissue-culture-grade 96-well plates at a density of 20,000 cells/well. After 24 hr, cells were washed with PBS and replaced with Opti-MEM reduced serum media containing SEQ ID NO:1 or SEQ ID NO:2 (9 μM). Aliquots of equal volume were taken at T=0 and 60 min. SEQ ID NO:2 was added to control wells having media (no cells) only. Samples were immediately acidified in 0.1% TFA, snap frozen in dry ice and stored in −80° C. until analysed by LCMS.
(§6) Samples were analyzed by LC-MS/MS on a Shimadzu Nexera uHPLC (Japan) coupled to a Triple Tof 5600 mass spectrometer (ABSCIEX, Canada) equipped with a duo electrospray ion source. One μL of each extract was injected onto a 2.1 mm×100 mm Zorbax C18 1.8 um column (Agilent) at 200 μL/min. […] SEQ ID NO:1 and SEQ ID NO:2 were quantified using the […] doubly charged molecular ion from m/z 510.270 to 510.325. The data was acquired using Analyst TF 1.6 and quantification was carried out using MultiQuant 2.1.1 software (ABSCIEX, Canada).

HEK293 cells = experiment: Peptide stability study in HEK293 cells, LCMS (Example 4); assay type: in vitro ADME; conditions: peptide 9 μM, Opti-MEM, 60 min
Procedure: as §4, §5, §6

NEP [4] = molecular target: T1, NEP; experiment: QFS plate reader enzyme assay, peptide screen on NEP activity (Example 3); assay type: biochemical; conditions: peptide 10 ng/μL, NEP 0.05 ng/μL, 1 h at 37° C.; compared to enzyme alone
Procedure: as §1, §2, §3

NEP [5] = molecular target: T1, NEP; conditions: Smith A I et al., (2016) Scientific reports 6:22413; cited from earlier work
ECE1 [6] = molecular target: T2, ECE1; conditions: Smith A I et al., (2016) Scientific reports 6:22413; cited from earlier work
[7] = Ang II 10 nM + peptide 26 μM + rhACE2 0.05 ng/μL + MLN-4760 10 μM

T1 sequence (P08473 whole entry): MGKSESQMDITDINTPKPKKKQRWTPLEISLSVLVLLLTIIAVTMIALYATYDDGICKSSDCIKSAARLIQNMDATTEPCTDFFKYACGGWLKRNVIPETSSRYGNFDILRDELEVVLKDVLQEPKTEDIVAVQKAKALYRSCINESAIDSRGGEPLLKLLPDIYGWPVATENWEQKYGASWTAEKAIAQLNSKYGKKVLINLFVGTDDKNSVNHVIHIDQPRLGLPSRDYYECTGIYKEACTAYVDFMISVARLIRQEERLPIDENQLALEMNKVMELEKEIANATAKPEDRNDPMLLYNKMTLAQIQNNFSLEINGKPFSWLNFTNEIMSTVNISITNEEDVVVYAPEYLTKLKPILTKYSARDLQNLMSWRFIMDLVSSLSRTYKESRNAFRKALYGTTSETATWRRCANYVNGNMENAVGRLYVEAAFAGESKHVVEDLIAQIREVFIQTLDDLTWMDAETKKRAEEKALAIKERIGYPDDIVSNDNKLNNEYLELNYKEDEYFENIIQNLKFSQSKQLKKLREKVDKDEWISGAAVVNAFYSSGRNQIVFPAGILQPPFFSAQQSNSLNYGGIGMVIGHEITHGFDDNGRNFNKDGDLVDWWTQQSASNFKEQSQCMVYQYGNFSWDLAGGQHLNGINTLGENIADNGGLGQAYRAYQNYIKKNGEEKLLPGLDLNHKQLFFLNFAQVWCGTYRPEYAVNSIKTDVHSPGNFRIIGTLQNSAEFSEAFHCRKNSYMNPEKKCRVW

## CC(C)C[C@H](N[C@@H](Cc1cncn1Cc1cc(Cl)cc(Cl)c1)C(=O)O)C(=O)O [MLN-4760, reference compound]
[1]; [7]
  Collagen III expression in the presence of ACE2 inhibitor MLN-4760: 75±14%
  IL-6 expression in the presence of MLN-4760: no difference

## Ang II: Angiotensin II, potent vasoconstrictor with fibrotic and inflammatory effects; stimulus in EA.hy926 cells (DRVYIHPF; Angiotensin-2; UniProt P01019 25-32, looked up) [reference compound]
[1]; EA.hy926 cells, 24 h, Ang II 10 nM alone, or Ang II and 2A (26 μM)
  Collagen III expression: 141±30%
[1]; EA.hy926 cells, Ang II 10 nM, 24 h, band density normalised with beta-actin
  IL-6 expression: 152±8%

## H-KILGILFMSE-OH [scrambled control, reference compound]
NEP [2]; Aβ40 cleavage
  decrease in Aβ1-21 and increase in Aβ1-12: not observed
NEP [2]; Aβ40 cleavage, 24 h
  peak area corresponding to Aβ1-12 after 24 h: 9.7×10^6±2.1×10^6 arbitrary units
NEP [2]; NEP 0.05 ng/μL, Aβ40 0.10 μg/μL, 4 h
  amount of Aβ40 remaining after 4 h (peak area): 6.4×10^6±1.7×10^6 arbitrary units

## H-SLFELGKMIL-OH [SEQ ID NO:1, H2N-SLFELGKMIL-OH]
ECE1 [3]
  ECE1 activity: no effect
EA.hy926 cells
  relative amount remaining in the medium of endothelial cells at 60 min: 23%±2.4%
HEK293 cells
  amount remaining in the medium of HEK293 cells: 29%±3%
NEP [4]
  NEP activity: significant increase

## H-SLFELGKMILQE-OH [SEQ ID NO:5]
ECE1 [3]
  ECE1 activity: no effect
NEP [4]
  NEP activity: significant increase

## H-SLFELGKMILQETG-OH [SEQ ID NO:12]
ECE1 [3]
  ECE1 activity: significantly stimulate
NEP [4]
  NEP activity: significantly stimulate

## H-SLFELGKMILQETGKN-OH [SEQ ID NO:11]
ECE1 [3]
  ECE1 activity: significantly stimulate
NEP [4]
  NEP activity: significantly stimulate

## H-SLFELGKMILQETGKNPAKS-OH [SEQ ID NO:9]
ECE1 [3]
  ECE1 activity: significantly stimulate
NEP [5]
  NEP activity (previous studies): directly increase the activity
NEP [4]
  NEP activity: significantly stimulate
ECE1 [6]
  ECE1 activity (previous studies): directly increase the activity

## rhACE2: Recombinant human ACE2 (Cat #933-ZN-010) purchased from R & D systems
[1]; Ang II 10 nM plus 2A 26 μM and/or ACE2 0.05 ng/μL, 24 h
  Collagen III expression compared to cells treated with Ang II alone: significantly lower
[1]; Ang II 10 nM plus peptide 26 μM and/or rhACE2 0.05 ng/μL, 24 h
  IL-6 expression compared to cells treated with Ang II alone: significantly lower
